Laboratory results: the NIST ThermoML archive (doi:10.1021/je200969r)

Assay: refractive index (other wavelength) (dimensionless)
Conditions: 101.33 kPa, Liquid, Minimum Deviation technique

[2H]O[2H] [water-d2]
refractive index
Conditions	Wavelength=543.5 nm	Wavelength=594.1 nm	Wavelength=632.8 nm
288.35 K	1.33	1.3283	1.3272
293.29 K	1.3298	1.3281	1.327
298.12 K	1.3293	1.3278	1.3267
303.15 K	1.3285	1.3271	1.326
308.09 K	1.328	1.3266	1.3254
313.11 K	1.3275	1.3259	1.3249
318.13 K	1.3269	1.3254	1.3243
323.14 K	1.3263	1.3248	1.3237
328.12 K	1.3251	1.3236	1.3225
333.06 K	1.3244	1.3229	1.3219
337.98 K	1.3237	1.3221	1.3211
